In patent publication US9579347B2, “Methods for enhancing the effect of EGCg on mitigating skeletal muscle loss” (ABBOTT LABORATORIES, priority 2012, dated 2017):

Tested on: serum-starved C2C12 myotubes
Test: release of radiolabeled phenylalanine (total protein degradation) from serum-starved C2C12 myotubes
Format: cell-based, murine
Conditions: serum-free medium, 24 hours, vs serum (NC) and serum-free (NS) controls
Experimental: The role of EGCg alone and EGCg in combination with zinc in preventing muscle protein degradation was evaluated in an in vitro cell-based assay using serum-starved C2C12 myotubes, i.e., differentiated, elongated murine myoblasts, which are routinely used to model adult skeletal myofibers in cell culture. This assay measured the release of radiolabeled phenylalanine (Phe) from myotubes in response to a catabolic stimulus. Under normal growth conditions in the presence of growth factors supplied by 2% horse serum, the myotubes actively incorporated the amino acid Phe into newly synthesized muscle proteins. This is shown as the negative control for proteolysis (NC) in lane 1 of FIG. 1, i.e., the serum control. In the absence of the 2% horse serum, specifically C2C12 cultured in a serum-free DMEM medium, the muscle proteins began to break down, and phenylalanine was subsequently released as a free amino acid. This is shown as the serum-free, positive control for proteolysis (NS) in lane 2 of FIG. 1. […] 10 μM EGCg was added to serum-free and serum-starved myotubes alone, i.e., lane 3 of FIG. 1.
The experiment was replicated 2 times where n=6 over the same period of time for each sample, i.e., 24 hours for each sample. Results are expressed as mean±S.E.M and statistical analysis between groups was determined by one-way ANOVA followed by Tukey's test.

Row | SMILES | total protein degradation (release of radiolabeled Phe) (10 μM EGCg alone, FIG. 1 lane 3) | total protein degradation (release of radiolabeled Phe) (10 μM zinc sulfate alone, FIG. 2 lane 3)
1 | O=C(O[C@@H]1Cc2c(O)cc(O)cc2O[C@@H]1c1cc(O)c(O)c(O)c1)c1cc(O)c(O)c(O)c1 [EGCg, epigallocatechin gallate] | greater inhibition of total protein degradation | 
2 | O=S(=O)([O-])[O-].[Zn+2] [zinc, zinc sulfate] |  | promoted or increased total protein degradation
